Results as given in the kinase profiling compilation of Christmann-Franck et al. (2016).
Several values for one entry are separate records, joined by “and”; a condition that tells them apart may be missing. Identical values can stand only once. Each block holds one compound with its values, some of them ahead of it.

Key:
Test in all cases: radiometric filter-binding kinase assay, Kinase HotSpot
Conditions in all cases: compound 0.5 µM; ATP 10 µM
[1] = target: CAMK2G (human) (UniProt Q13555)
[2] = target: NEK9 (human) (UniProt Q8TD19)
[3] = target: DCLK2 (human) (UniProt Q8N568)
[4] = target: SRC (human) (UniProt P12931)
[5] = target: NEK6 (human) (UniProt Q9HC98)
[6] = target: CDK4 CCND3 (human) (UniProt P30281+P11802)
[7] = target: FGR (human) (UniProt P09769)
[8] = target: MYLK (human) (UniProt Q15746)
[9] = target: STK17A (human) (UniProt Q9UEE5)
[10] = target: CDK5 CDK5R1 p35 (human) (UniProt Q00535+Q15078)
[11] = target: MAPK8 (human) (UniProt P45983)
[12] = target: MAPK3 (human) (UniProt P27361)
[13] = target: ROCK2 (human) (UniProt O75116)
[14] = target: PASK (human) (UniProt Q96RG2)
[15] = target: IRAK1 (human) (UniProt P51617)
[16] = target: MAP2K1 (human) (UniProt Q02750)
[17] = target: STK3 (human) (UniProt Q13188)
[18] = target: LCK (human) (UniProt P06239)
[19] = target: TGFBR2 (human) (UniProt P37173)
[20] = target: STK16 (human) (UniProt O75716)
[21] = target: STK38 (human) (UniProt Q15208)
[22] = target: GRK5 (human) (UniProt P34947)
[23] = target: MAPKAPK3 (human) (UniProt Q16644)
[24] = target: CAMK2A (human) (UniProt Q9UQM7)
[25] = target: MAP4K4 (human) (UniProt O95819)
[26] = target: CAMK1 (human) (UniProt Q14012)
[27] = target: MAP3K7 TAB1 (human) (UniProt O43318+Q15750)
[28] = target: JAK3 JH1 JH2 (human) (UniProt P52333)
[29] = target: PRKG1 (human) (UniProt Q13976)
[30] = target: CAMK2B (human) (UniProt Q13554)
[31] = target: STK10 (human) (UniProt O94804)
[32] = target: STK25 (human) (UniProt O00506)
[33] = target: MAP3K5 (human) (UniProt Q99683)
[34] = target: CAMK4 (human) (UniProt Q16566)
[35] = target: CDK6 CCND3 (human) (UniProt P30281+Q00534)
[36] = target: MINK1 (human) (UniProt Q8N4C8)
[37] = target: PNCK (human) (UniProt Q6P2M8)
[38] = target: MAP3K11 (human) (UniProt Q16584)
[39] = target: STK33 (human) (UniProt Q9BYT3)
[40] = target: CAMK2D (human) (UniProt Q13557)
[41] = target: EPHB3 (human) (UniProt P54753)
[42] = target: CLK1 (human) (UniProt P49759)

Chain of MAP3K7 TAB1 (human) (O43318 whole entry, looked up): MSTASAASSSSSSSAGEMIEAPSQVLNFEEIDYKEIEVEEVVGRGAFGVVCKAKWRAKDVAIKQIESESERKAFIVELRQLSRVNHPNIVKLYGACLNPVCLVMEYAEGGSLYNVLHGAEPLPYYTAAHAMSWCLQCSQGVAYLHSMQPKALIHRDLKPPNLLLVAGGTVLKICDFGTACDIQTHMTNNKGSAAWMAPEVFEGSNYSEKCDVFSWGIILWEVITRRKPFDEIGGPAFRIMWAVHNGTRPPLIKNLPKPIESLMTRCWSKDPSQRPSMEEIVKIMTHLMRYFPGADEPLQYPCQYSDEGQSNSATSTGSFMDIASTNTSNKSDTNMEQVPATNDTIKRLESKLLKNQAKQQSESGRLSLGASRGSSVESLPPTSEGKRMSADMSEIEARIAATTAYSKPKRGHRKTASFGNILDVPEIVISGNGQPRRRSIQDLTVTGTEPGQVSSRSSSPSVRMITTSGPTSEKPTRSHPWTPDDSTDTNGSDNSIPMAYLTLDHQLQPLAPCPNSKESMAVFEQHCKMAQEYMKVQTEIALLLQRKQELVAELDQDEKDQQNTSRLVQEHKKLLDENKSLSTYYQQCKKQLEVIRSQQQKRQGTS
Chain of MAP3K7 TAB1 (human) (Q15750 whole entry, looked up): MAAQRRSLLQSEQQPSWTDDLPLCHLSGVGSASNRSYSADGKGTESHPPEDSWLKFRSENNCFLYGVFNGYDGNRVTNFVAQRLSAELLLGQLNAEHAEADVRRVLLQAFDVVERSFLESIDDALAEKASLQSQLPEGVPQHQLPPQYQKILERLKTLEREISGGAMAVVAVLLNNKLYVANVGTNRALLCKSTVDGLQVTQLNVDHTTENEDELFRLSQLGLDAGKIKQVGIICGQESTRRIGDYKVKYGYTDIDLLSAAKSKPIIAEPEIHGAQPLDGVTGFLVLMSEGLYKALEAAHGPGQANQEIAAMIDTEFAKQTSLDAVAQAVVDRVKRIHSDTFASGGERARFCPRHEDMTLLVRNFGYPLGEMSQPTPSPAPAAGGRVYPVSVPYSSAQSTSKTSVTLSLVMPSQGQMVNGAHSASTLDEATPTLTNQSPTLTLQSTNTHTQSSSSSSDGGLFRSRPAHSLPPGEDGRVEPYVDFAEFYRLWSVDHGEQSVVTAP
Chain of GRK5 (human) (P34947 whole entry, looked up): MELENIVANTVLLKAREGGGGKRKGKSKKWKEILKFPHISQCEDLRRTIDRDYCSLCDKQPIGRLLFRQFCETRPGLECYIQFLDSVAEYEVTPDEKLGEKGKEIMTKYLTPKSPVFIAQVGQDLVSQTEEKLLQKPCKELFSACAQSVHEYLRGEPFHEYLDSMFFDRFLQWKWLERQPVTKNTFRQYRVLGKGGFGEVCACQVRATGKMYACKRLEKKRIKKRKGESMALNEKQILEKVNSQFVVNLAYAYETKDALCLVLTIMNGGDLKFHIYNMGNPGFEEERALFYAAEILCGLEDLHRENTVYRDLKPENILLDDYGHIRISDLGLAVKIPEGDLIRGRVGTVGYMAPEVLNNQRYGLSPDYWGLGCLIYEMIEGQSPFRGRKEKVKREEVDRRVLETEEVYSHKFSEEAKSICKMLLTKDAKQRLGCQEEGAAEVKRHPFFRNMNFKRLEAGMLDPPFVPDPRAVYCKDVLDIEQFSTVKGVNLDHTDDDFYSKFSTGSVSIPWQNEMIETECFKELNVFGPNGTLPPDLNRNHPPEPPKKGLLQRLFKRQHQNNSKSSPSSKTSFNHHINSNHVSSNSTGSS
Chain of EPHB3 (human) (P54753 whole entry, looked up): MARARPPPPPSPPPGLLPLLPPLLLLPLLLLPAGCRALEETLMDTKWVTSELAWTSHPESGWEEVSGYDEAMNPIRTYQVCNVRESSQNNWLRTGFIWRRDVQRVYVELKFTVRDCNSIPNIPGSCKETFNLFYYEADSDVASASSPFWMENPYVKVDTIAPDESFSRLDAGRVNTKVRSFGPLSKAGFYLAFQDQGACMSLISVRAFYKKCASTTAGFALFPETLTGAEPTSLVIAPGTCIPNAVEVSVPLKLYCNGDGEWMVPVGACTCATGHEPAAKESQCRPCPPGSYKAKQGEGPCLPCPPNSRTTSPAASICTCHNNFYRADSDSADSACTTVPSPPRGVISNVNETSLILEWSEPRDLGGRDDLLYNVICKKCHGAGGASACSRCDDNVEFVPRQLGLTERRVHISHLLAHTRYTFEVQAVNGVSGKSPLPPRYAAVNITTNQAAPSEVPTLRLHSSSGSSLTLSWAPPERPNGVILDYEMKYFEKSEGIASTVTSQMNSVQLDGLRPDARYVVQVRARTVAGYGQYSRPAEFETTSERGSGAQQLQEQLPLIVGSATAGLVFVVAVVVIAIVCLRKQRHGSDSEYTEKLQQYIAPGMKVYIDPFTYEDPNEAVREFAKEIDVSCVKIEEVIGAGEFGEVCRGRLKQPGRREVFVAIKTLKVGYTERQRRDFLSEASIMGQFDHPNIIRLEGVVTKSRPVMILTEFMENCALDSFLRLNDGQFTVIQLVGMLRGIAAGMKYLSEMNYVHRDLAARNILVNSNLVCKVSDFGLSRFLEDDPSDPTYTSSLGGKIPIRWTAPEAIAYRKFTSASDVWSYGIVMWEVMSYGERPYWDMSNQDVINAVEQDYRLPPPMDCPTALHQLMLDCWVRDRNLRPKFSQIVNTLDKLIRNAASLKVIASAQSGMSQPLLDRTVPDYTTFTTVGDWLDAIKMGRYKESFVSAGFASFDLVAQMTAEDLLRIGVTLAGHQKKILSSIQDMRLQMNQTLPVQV
Chain of NEK6 (human) (Q9HC98 whole entry, looked up): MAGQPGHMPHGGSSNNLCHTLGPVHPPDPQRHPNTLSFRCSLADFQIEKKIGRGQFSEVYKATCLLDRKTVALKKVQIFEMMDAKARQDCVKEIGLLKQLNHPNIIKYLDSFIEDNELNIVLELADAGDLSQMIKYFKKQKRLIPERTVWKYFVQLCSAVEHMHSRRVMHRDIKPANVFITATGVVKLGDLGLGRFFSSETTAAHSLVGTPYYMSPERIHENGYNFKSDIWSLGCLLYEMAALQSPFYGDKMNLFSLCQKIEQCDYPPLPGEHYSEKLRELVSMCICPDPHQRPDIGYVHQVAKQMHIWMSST
Chain of CDK6 CCND3 (human) (P30281 whole entry, looked up): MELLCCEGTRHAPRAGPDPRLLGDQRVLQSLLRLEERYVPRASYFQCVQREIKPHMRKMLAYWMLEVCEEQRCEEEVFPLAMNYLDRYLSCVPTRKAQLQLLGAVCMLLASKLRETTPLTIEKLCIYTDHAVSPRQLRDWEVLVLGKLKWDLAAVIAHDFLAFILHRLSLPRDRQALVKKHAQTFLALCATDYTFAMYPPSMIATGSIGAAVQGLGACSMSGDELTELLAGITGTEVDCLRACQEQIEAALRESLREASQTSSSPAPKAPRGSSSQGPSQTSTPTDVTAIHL
Chain of CDK6 CCND3 (human) (Q00534 whole entry, looked up): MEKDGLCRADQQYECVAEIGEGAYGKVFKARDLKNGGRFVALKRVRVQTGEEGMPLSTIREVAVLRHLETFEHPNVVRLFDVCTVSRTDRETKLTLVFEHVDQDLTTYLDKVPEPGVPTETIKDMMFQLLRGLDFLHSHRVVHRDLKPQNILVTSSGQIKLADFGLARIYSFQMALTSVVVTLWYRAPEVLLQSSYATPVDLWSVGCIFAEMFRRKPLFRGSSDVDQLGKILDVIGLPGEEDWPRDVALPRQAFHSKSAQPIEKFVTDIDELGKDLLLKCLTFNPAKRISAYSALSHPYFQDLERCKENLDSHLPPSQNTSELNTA
Chain of CAMK2B (human) (Q13554 whole entry, looked up): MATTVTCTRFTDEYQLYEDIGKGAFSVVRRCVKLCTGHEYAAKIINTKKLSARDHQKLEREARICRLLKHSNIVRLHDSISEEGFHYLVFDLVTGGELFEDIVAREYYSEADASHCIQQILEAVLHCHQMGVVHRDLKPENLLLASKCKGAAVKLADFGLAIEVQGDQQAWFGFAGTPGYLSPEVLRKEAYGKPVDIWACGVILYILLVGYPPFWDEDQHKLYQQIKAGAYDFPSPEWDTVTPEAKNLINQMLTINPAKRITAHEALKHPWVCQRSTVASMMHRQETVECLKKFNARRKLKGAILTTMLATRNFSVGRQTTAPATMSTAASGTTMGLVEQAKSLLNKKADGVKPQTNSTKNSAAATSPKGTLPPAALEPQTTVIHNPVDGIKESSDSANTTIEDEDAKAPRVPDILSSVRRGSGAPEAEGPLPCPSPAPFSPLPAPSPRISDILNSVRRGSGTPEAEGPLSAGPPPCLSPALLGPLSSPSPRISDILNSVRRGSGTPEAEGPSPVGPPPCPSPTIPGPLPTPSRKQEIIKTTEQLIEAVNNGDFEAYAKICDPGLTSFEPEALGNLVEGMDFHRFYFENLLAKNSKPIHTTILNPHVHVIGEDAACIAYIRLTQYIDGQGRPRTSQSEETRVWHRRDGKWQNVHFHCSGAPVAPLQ
Chain of FGR (human) (P09769 whole entry, looked up): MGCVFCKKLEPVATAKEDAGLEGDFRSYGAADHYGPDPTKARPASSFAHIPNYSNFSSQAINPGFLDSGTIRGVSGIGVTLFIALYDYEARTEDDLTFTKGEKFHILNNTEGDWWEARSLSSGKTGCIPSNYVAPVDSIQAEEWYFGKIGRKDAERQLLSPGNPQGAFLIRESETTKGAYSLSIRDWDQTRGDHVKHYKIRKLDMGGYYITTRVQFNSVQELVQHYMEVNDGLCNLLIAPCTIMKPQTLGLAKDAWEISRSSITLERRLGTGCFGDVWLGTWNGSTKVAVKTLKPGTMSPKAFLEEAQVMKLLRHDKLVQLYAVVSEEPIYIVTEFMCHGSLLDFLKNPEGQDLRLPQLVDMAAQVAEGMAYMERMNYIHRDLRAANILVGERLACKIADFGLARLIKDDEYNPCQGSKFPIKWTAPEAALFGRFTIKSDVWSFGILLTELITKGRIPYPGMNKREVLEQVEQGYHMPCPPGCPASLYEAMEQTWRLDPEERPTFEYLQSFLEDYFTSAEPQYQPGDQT

residual activity [1]: 119% | residual activity [3]: 90.4% | residual activity [4]: 53.3% | residual activity [5]: 104% | residual activity [6]: 101% | residual activity [7]: 39.2% | residual activity [8]: 84.3% | residual activity [9]: 97% | residual activity [10]: 95.8% | residual activity [11]: 86.9% | residual activity [12]: 106% | residual activity [13]: 58.2% | residual activity [14]: 106% | residual activity [15]: 57.7% | residual activity [16]: 89.3% | residual activity [17]: 78.6% | residual activity [18]: 29.3% | residual activity [19]: 127% | residual activity [20]: 95.4% | residual activity [21]: 102% | residual activity [22]: 98.9% | residual activity [23]: 96.9% | residual activity [24]: 73.8% | residual activity [25]: 40.9% | residual activity [26]: 95.8% | residual activity [27]: 79.8% | residual activity [28]: 47% | residual activity [29]: 93.2% and 97.1% | residual activity [30]: 89.8% | residual activity [31]: 9.05% | residual activity [32]: 91% | residual activity [33]: 105% | residual activity [34]: 96.2% | residual activity [35]: 72.8% | residual activity [36]: 68.7% | residual activity [37]: 101% | residual activity [38]: 79.1% | residual activity [39]: 67.9% | residual activity [40]: 68.4% | residual activity [41]: 98.6%
SMILES: Cc1[nH]c(/C=C2\C(=O)Nc3ccc(S(=O)(=O)N(C)c4cccc(Cl)c4)cc32)c(C)c1C(=O)N1CCN(C)CC1
residual activity [2]: 92.5%

residual activity [1]: 95% | residual activity [3]: 99.5% | residual activity [4]: 13.4% | residual activity [5]: 107% | residual activity [6]: 108% | residual activity [7]: 2.93% | residual activity [8]: 98.4% | residual activity [9]: 96.3% | residual activity [11]: 117% | residual activity [42]: 103% | residual activity [12]: 108% | residual activity [13]: 90.5% | residual activity [14]: 98.5% | residual activity [15]: 110% | residual activity [16]: 93% | residual activity [17]: 97.7% | residual activity [18]: 1.12% | residual activity [19]: 166% | residual activity [20]: 90.7% | residual activity [21]: 99.3% | residual activity [22]: 102% | residual activity [23]: 109% | residual activity [24]: 113% | residual activity [25]: 98.8% | residual activity [26]: 100% | residual activity [27]: 92.3% | residual activity [28]: 105% | residual activity [29]: 103% and 96.4% | residual activity [30]: 102% | residual activity [31]: 73.1% | residual activity [32]: 113% | residual activity [33]: 99.1% | residual activity [34]: 101% | residual activity [35]: 97.2% | residual activity [36]: 105% | residual activity [37]: 96.2% | residual activity [38]: 92.9% | residual activity [39]: 92.3% | residual activity [40]: 99.5% | residual activity [41]: 93.4%
SMILES: Nc1ncnc2c1c(-c1ccc(Oc3ccccc3)cc1)cn2C1CCCC1
residual activity [2]: 96.6%

SMILES: N#C/C(=C(/N)Sc1ccc(N)cc1)c1ccccc1C(F)(F)F
residual activity [1]: 106% | residual activity [2]: 99.2% | residual activity [3]: 99.1% | residual activity [4]: 94.1% | residual activity [5]: 101% | residual activity [6]: 108% | residual activity [7]: 101% | residual activity [8]: 94.9% | residual activity [9]: 82.6% | residual activity [10]: 103% | residual activity [11]: 112% | residual activity [12]: 116% | residual activity [13]: 100% | residual activity [14]: 101% | residual activity [15]: 100% | residual activity [16]: 97.9% | residual activity [17]: 125% | residual activity [18]: 107% | residual activity [19]: 113% | residual activity [20]: 98.4% | residual activity [21]: 93.1% | residual activity [22]: 102% | residual activity [23]: 102% | residual activity [24]: 111% | residual activity [25]: 93.4% | residual activity [26]: 91.6% | residual activity [27]: 93.5% | residual activity [28]: 101% | residual activity [29]: 100% and 98.8% | residual activity [30]: 93.5% | residual activity [31]: 88.7% | residual activity [32]: 114% | residual activity [33]: 108% | residual activity [34]: 110% | residual activity [35]: 103% | residual activity [36]: 104% | residual activity [37]: 98.9% | residual activity [38]: 99.9% | residual activity [39]: 92.2% | residual activity [40]: 93.4% | residual activity [41]: 96.7%

SMILES: Cc1ccc(Nc2nccc(N(C)c3ccc4c(C)n(C)nc4c3)n2)cc1S(N)(=O)=O
residual activity [1]: 106% | residual activity [2]: 95.8% | residual activity [3]: 102% | residual activity [4]: 70.7% | residual activity [5]: 96.1% | residual activity [6]: 96% | residual activity [7]: 35.8% | residual activity [8]: 93% | residual activity [9]: 95.9% | residual activity [10]: 99.3% | residual activity [42]: 103% | residual activity [12]: 102% | residual activity [13]: 91.1% | residual activity [14]: 101% | residual activity [15]: 97% | residual activity [16]: 106% | residual activity [17]: 95.4% | residual activity [18]: 43.3% | residual activity [19]: 100% | residual activity [20]: 43.8% | residual activity [21]: 100% | residual activity [22]: 99.6% | residual activity [23]: 98.5% | residual activity [24]: 95.6% | residual activity [25]: 77.4% | residual activity [26]: 87.4% | residual activity [27]: 90.6% | residual activity [28]: 95.3% | residual activity [29]: 103% and 95.1% | residual activity [30]: 95.5% | residual activity [31]: 50.1% | residual activity [32]: 97.3% | residual activity [33]: 102% | residual activity [34]: 95.9% | residual activity [35]: 96.1% | residual activity [36]: 73.7% | residual activity [37]: 95.9% | residual activity [39]: 87.1% | residual activity [40]: 99.4% | residual activity [41]: 71.7%
